“And” between values parts separate entries of the source, which are not always exact repeats. Equal values may be shown once.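 Following 48 hours of exposure in 96-well plates, responses at five concentrations were used to interpolate endpoints linearly. The concentration for 50% growth inhibition is given as GI50. TGI marks complete inhibition of growth.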 Some results are limits rather than exact numbers.

Among the test systems are NCI-H23 lung; XF 498 CNS; DMS 114 small cell lung; M19-MEL melanoma; NCI-H226 lung; UACC-62 melanoma; HCC-2998 colon; MOLT-4 leukemia; DMS 273 small cell lung; SNB-78 CNS; DLD-1 colon; HS 578T breast; T-47D breast.
Test in all cases: NCI tumour cell line growth inhibition, 48 h

In the case of `COc1cc2c(Cc3cc(OCc4ccccc4)ccc3N)nccc2c(OC)c1OC`, the TGI in the experiment on NCI-H23 lung, in the experiment with XF 498 CNS, with DMS 114 small cell lung, with M19-MEL melanoma, in the experiment on NCI-H226 lung and in the experiment with UACC-62 melanoma was greater than 10 µM in each case. Further, the TGI in the experiment with HCC-2998 colon, in the experiment with MOLT-4 leukemia, with DMS 273 small cell lung, in the experiment on SNB-78 CNS and with DLD-1 colon was greater than 10 µM throughout.

`NS(=O)(=O)c1ccc(NC(=O)c2cccc3c(Nc4ccc(S(N)(=O)=O)cc4)c4ccccc4nc23)cc1`: the TGI in the experiment with NCI-H23 lung was greater than 100 µM; in the experiment on XF 498 CNS it was 74.6 µM; in the experiment with DMS 114 small cell lung, greater than 100 µM; with M19-MEL melanoma, greater than 100 µM; in the experiment on UACC-62 melanoma, greater than 100 µM; in the experiment on MOLT-4 leukemia, 39.8 µM. Also, the TGI was 5.15 µM with DMS 273 small cell lung, greater than 100 µM in the experiment with SNB-78 CNS and greater than 100 µM in the experiment on DLD-1 colon.

`O=S(=O)(N/N=C/c1ccc(Cl)cc1Cl)c1ccccc1`: the TGI is greater than 100 µM with NCI-H23 lung; greater than 100 µM with XF 498 CNS; 89.9 µM in the experiment on DMS 114 small cell lung; greater than 100 µM in the experiment on M19-MEL melanoma; greater than 100 µM with NCI-H226 lung; greater than 100 µM with UACC-62 melanoma. In addition, the TGI in the experiment with HCC-2998 colon, with MOLT-4 leukemia, with DMS 273 small cell lung, in the experiment with SNB-78 CNS and in the experiment on DLD-1 colon was greater than 100 µM each time.

For the compound `COc1ccc(/C=N\O[Si](C)(C)C(C)(C)C)cc1O[Si](C)(C)C(C)(C)C`, the TGI in the experiment with NCI-H23 lung is 37.1 µM; in the experiment on XF 498 CNS it was 32.7 µM; with DMS 114 small cell lung it was 35.6 µM; in the experiment with M19-MEL melanoma, 36.5 µM; in the experiment with UACC-62 melanoma, 40.2 µM; in the experiment on HCC-2998 colon, 32.9 µM. The TGI in the experiment on MOLT-4 leukemia is 36.5 µM; in the experiment on DMS 273 small cell lung it was 34.1 µM; with SNB-78 CNS, 36.1 µM; in the experiment with DLD-1 colon, 32.9 µM.

As for `O=c1cc(-c2ccc(O)cc2)oc2cc(O)cc(O)c12`, the TGI in the experiment with NCI-H23 lung was 46.6 µM; with XF 498 CNS, 61.6 µM; with DMS 114 small cell lung it was greater than 100 µM; in the experiment with M19-MEL melanoma it was greater than 100 µM; in the experiment on NCI-H226 lung, 75.9 µM; in the experiment with UACC-62 melanoma, greater than 100 µM. The TGI with HCC-2998 colon stood at 56.8 µM; with MOLT-4 leukemia it was 88.4 µM; in the experiment on DMS 273 small cell lung, 40.2 µM; in the experiment with SNB-78 CNS, 39.5 µM.

For `CCOC(=O)C1Oc2ccc([N+](=O)[O-])cc2C1(C)O` (stereo not given), the TGI in the experiment on NCI-H23 lung, in the experiment on XF 498 CNS, with DMS 114 small cell lung, in the experiment with M19-MEL melanoma, in the experiment on NCI-H226 lung and in the experiment with UACC-62 melanoma was greater than 100 µM throughout. Also, the TGI in the experiment on HCC-2998 colon, in the experiment on MOLT-4 leukemia, with DMS 273 small cell lung, in the experiment on SNB-78 CNS and in the experiment on DLD-1 colon was greater than 100 µM in each case.

`Cc1cccc(N=C2NC(=O)C(CC(=O)Nc3ccccc3Cl)S2)c1` (stereo not given): the TGI with NCI-H23 lung, in the experiment with XF 498 CNS, in the experiment with DMS 114 small cell lung, in the experiment on M19-MEL melanoma, in the experiment on NCI-H226 lung and with UACC-62 melanoma was greater than 100 µM throughout. For the same compound, the TGI with HCC-2998 colon, in the experiment on MOLT-4 leukemia, in the experiment on DMS 273 small cell lung, with SNB-78 CNS and in the experiment with DLD-1 colon was greater than 100 µM in each case.

Take `O=C(CC(=O)c1ccccc1)C(=O)NC12CC3CC(CC(C3)C1)C2`: the TGI in the experiment with NCI-H23 lung was greater than 100 µM; in the experiment on XF 498 CNS, greater than 100 µM; with DMS 114 small cell lung, greater than 58.4 µM; in the experiment on M19-MEL melanoma, greater than 100 µM; in the experiment with NCI-H226 lung it was greater than 100 µM; with UACC-62 melanoma, greater than 100 µM. The TGI in the experiment on HCC-2998 colon was greater than 100 µM; in the experiment with MOLT-4 leukemia it was greater than 100 µM; in the experiment on DMS 273 small cell lung, greater than 70.2 µM; in the experiment on SNB-78 CNS it was greater than 100 µM; in the experiment on DLD-1 colon it was greater than 70 µM.

With `COc1ccc(/C(C#N)=C(/N)SCc2ccccc2Cl)cc1`, the TGI is 34.2 µM with NCI-H23 lung; 30.3 µM with XF 498 CNS; 37.1 µM with DMS 114 small cell lung; 40.6 µM with M19-MEL melanoma; 33.3 µM in the experiment with NCI-H226 lung; 25.4 µM in the experiment on UACC-62 melanoma. Further, the TGI with HCC-2998 colon was found to be 31.7 µM; in the experiment with MOLT-4 leukemia it was 85.2 µM; in the experiment on SNB-78 CNS, 64.2 µM; in the experiment with DLD-1 colon, 32.7 µM.

With `[O-][n+]1c2cc(CN3CCOCC3)c(CN3CCOCC3)cc2[n+]([O-])c2c(O)cccc21`, the TGI stood at 8.88 µM in the experiment on NCI-H23 lung; 7.42 µM in the experiment on XF 498 CNS; 8.83 µM with M19-MEL melanoma; 30.9 µM in the experiment on NCI-H226 lung; 12.9 µM in the experiment with UACC-62 melanoma; 3.05 µM in the experiment with MOLT-4 leukemia. In addition, the TGI was 15 µM in the experiment on DMS 273 small cell lung, 21.9 µM in the experiment on SNB-78 CNS and 6.8 µM with DLD-1 colon.

As for `O=C(O)C1CC2CC(=O)C1C2` (stereo not given), the TGI in the experiment on NCI-H23 lung, in the experiment with XF 498 CNS, in the experiment on M19-MEL melanoma, with NCI-H226 lung, in the experiment on UACC-62 melanoma and in the experiment with MOLT-4 leukemia was greater than 100 µM each time. Further, the TGI with DMS 273 small cell lung, in the experiment on SNB-78 CNS and with DLD-1 colon was greater than 100 µM throughout.

Take `CCCCCCCCCCCCCCCCCc1nnc(N)o1`: the TGI with NCI-H23 lung, in the experiment on XF 498 CNS, in the experiment with M19-MEL melanoma, in the experiment with NCI-H226 lung, with UACC-62 melanoma and with HCC-2998 colon was greater than 100 µM throughout. For the same compound, the TGI with MOLT-4 leukemia, in the experiment on DMS 273 small cell lung, with SNB-78 CNS and in the experiment with DLD-1 colon was greater than 100 µM throughout.

In the case of `O=C1NN=CN2C(=O)CCC12` (stereo not given), the TGI with NCI-H23 lung, in the experiment on XF 498 CNS, in the experiment on DMS 114 small cell lung, in the experiment on M19-MEL melanoma, with UACC-62 melanoma and in the experiment with HCC-2998 colon was greater than 100 µM each time. The TGI in the experiment with MOLT-4 leukemia, with DMS 273 small cell lung, in the experiment on SNB-78 CNS and in the experiment with DLD-1 colon was greater than 100 µM each time.

On to `COC(=O)C1=C(c2ccc(Cl)cc2)C(O)N=C(NN)N1` (stereo not given), for which the TGI with NCI-H23 lung, in the experiment on XF 498 CNS, in the experiment with DMS 114 small cell lung, in the experiment with M19-MEL melanoma, in the experiment with NCI-H226 lung and in the experiment on UACC-62 melanoma was greater than 100 µM in each case. Moreover, the TGI in the experiment on HCC-2998 colon, in the experiment on MOLT-4 leukemia, with SNB-78 CNS and in the experiment with DLD-1 colon was greater than 100 µM throughout.

With `O=C1NN=C(c2ccc([N+](=O)[O-])cc2)C1n1nc(-c2ccccc2)c2ccccc2c1=O` (stereo not given), the TGI with NCI-H23 lung, in the experiment with XF 498 CNS, in the experiment with M19-MEL melanoma, in the experiment with NCI-H226 lung, in the experiment on UACC-62 melanoma and in the experiment with HCC-2998 colon was greater than 100 µM in each case. For the same compound, the TGI in the experiment on MOLT-4 leukemia was greater than 100 µM; in the experiment with DMS 273 small cell lung, greater than 68.3 µM; in the experiment on SNB-78 CNS, greater than 100 µM; in the experiment with DLD-1 colon it was greater than 78.7 µM.

For `c1ccc2c(CN3CCC(C4CCN(Cc5cccc6ccccc56)CC4)CC3)cccc2c1`, the GI50 was 23.2 µM and > 100 µM with NCI-H23 lung; 31.7 µM and 96.8 µM with NCI-H226 lung. Also, the TGI was greater than 100 µM in the experiment with NCI-H23 lung; 10.4 µM in the experiment on XF 498 CNS; 6.76 µM in the experiment with DMS 114 small cell lung; 20.7 µM in the experiment on M19-MEL melanoma; greater than 100 µM in the experiment with NCI-H226 lung; 17.5 µM and 20.9 µM with UACC-62 melanoma. For the same compound, the TGI with HCC-2998 colon is 2.97 µM and 5.61 µM; in the experiment on HS 578T breast, greater than 100 µM; in the experiment with MOLT-4 leukemia it was 26.6 µM and 99.1 µM; with DMS 273 small cell lung, 22.9 µM; with SNB-78 CNS, 73.7 µM; in the experiment on DLD-1 colon, 26.8 µM. In the experiment on T-47D breast, this compound gave a TGI of 89.1 µM.

For `COc1cc2nncc(SCc3ccc(Cl)c(Cl)c3)c2cc1OC`, the TGI in the experiment on NCI-H23 lung is greater than 100 µM; in the experiment on XF 498 CNS it was 81.3 µM; in the experiment on DMS 114 small cell lung it was greater than 100 µM; in the experiment on M19-MEL melanoma, greater than 100 µM; in the experiment with NCI-H226 lung, greater than 100 µM; in the experiment on UACC-62 melanoma it was greater than 100 µM. Further, the TGI in the experiment with HCC-2998 colon, with HS 578T breast, with MOLT-4 leukemia, with DMS 273 small cell lung, in the experiment with SNB-78 CNS and in the experiment with T-47D breast was greater than 100 µM throughout.

`CC1CC(=O)c2c(ccc3c2C(=O)c2cccc(O)c2C3=O)C1` (stereo not given): the TGI with NCI-H23 lung was 27.1 µM; with XF 498 CNS it was 25.1 µM; with DMS 114 small cell lung it was 25.4 µM; with M19-MEL melanoma, 4.96 µM; in the experiment with NCI-H226 lung it was 34.3 µM; in the experiment with UACC-62 melanoma, 22.4 µM. Besides, the TGI is 23.2 µM with HCC-2998 colon; 9.57 µM in the experiment with MOLT-4 leukemia; 18.5 µM with DMS 273 small cell lung; 45.7 µM in the experiment on SNB-78 CNS; 9.56 µM in the experiment on DLD-1 colon.

(Values after PubChem BioAssay (NCI).)
